# According to patent publication US20250312462A1, “PAK1 DEGRADERS AND METHODS OF USE THEREOF” (INSTITUTE FOR CANCER RESEARCH D/B/A THE RESEARCH INSTITUTE …, priority 2022, published 2025):
# What was measured:
# [1] = target: ABL1(E255K)-phosphorylated (Homo sapiens, UniProt P00519, E255K); test: KINOMEscan; details: read-out: Percent Control
# Description: (§1) The kinase engagement assay (KINOMEscan®) was performed by DiscoverX assessing binding abilities toward a set of kinases.
# [2] = target: MYLK2 (Homo sapiens, UniProt Q9H1R3); test: KINOMEscan; details: read-out: Percent Control
# Description: as §1
# [3] = target: PLK1 (Homo sapiens, UniProt P53350); test: KINOMEscan; details: read-out: Percent Control
# Sequence of PLK1 (P53350 whole entry): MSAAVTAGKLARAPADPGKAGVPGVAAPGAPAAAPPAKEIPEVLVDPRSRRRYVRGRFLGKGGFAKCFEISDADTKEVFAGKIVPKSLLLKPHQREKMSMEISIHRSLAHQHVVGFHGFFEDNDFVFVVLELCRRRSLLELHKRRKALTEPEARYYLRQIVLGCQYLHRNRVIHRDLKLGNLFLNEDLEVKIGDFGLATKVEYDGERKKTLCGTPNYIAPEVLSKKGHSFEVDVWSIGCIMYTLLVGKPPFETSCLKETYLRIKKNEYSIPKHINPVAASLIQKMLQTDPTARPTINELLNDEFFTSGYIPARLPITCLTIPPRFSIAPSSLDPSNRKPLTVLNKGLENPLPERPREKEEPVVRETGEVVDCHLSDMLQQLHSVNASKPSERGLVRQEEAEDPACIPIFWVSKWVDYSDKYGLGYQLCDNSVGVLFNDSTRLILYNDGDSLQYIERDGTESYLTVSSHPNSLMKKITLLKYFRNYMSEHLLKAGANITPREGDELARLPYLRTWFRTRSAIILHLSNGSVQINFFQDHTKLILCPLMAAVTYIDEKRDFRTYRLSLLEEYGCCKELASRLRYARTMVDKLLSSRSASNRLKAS
# Description: as §1
# [4] = target: LTK (Homo sapiens, UniProt P29376); test: KINOMEscan; details: read-out: Percent Control
# Description: as §1
# [5] = target: ACVR2B (Homo sapiens, UniProt Q13705); test: KINOMEscan; details: read-out: Percent Control
# Description: as §1
# [6] = target: PIK3CD (Homo sapiens, UniProt O00329); test: KINOMEscan; details: read-out: Percent Control
# Sequence of PIK3CD (O00329 whole entry): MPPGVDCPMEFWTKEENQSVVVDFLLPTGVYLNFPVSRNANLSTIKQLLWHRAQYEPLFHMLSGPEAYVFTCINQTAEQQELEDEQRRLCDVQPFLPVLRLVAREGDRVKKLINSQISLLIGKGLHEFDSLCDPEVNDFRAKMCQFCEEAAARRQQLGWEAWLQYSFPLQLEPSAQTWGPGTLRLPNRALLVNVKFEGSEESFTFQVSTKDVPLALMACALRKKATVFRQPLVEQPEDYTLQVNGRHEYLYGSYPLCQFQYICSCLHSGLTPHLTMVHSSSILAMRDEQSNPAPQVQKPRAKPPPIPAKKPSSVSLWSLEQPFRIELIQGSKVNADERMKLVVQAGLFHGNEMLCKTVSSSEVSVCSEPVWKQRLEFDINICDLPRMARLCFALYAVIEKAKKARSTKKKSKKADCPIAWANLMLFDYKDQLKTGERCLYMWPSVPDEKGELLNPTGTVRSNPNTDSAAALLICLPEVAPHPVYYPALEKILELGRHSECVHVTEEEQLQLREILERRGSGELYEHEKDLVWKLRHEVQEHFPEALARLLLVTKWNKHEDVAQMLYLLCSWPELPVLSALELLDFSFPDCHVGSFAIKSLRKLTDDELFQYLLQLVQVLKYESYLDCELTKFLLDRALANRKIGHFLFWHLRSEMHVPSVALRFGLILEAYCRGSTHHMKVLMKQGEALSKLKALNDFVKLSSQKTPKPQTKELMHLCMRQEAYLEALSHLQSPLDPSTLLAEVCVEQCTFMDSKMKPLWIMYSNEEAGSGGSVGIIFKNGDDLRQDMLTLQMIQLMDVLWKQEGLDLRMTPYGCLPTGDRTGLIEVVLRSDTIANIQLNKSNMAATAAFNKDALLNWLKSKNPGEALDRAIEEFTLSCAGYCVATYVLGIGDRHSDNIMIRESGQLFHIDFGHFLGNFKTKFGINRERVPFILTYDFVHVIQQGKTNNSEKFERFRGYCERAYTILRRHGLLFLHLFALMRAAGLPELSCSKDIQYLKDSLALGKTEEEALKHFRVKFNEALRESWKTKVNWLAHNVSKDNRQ
# Description: as §1
# [7] = target: MAST1 (Homo sapiens, UniProt Q9Y2H9); test: KINOMEscan; details: read-out: Percent Control
# Description: as §1
# [8] = target: CDK2 (Homo sapiens, UniProt P24941); test: KINOMEscan; details: read-out: Percent Control
# Description: as §1
# [9] = target: PAK1 (Homo sapiens, UniProt Q13153); test: PAK1 degradation in MCF7 and OVCAR3 cells, immunoblot; assay type: cell-based; set-up: endogenous in cells; host or cells: MCF7, OVCAR3
# Sequence of PAK1 (Q13153 whole entry): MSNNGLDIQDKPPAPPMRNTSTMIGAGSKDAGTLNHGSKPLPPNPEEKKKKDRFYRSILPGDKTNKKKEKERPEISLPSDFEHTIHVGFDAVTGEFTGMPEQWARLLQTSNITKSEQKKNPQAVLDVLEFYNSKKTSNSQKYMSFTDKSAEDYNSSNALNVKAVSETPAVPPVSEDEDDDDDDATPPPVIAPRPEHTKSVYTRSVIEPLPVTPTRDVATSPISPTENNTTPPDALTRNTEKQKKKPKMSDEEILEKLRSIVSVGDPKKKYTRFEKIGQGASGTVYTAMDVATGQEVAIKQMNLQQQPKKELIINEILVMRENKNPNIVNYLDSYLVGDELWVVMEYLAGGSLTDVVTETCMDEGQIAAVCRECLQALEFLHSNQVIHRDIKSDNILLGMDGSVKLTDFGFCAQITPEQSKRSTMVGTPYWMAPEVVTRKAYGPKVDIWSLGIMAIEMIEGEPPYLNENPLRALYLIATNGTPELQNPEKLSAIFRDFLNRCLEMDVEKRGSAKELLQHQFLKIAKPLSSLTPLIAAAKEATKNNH
# Description: Protein lysates were harvested at the times specified.
# Cell lysates were obtained by centrifugation at 13,500 rpm for 15 minutes at 4° C. BCA protein assay (Thermo Scientific) was used to determine protein concentration then equal amounts of total proteins were separated by SDS-PAGE (Bio-Rad) and transferred to PVDF membrane (Thermo Scientific) at 100V for 2 hours. Membranes were blocked in 5% (w/v) non-fat dry milk in tris-buffered saline with 0.1% Tween-20 (TBS-T) for 1 hour and incubated with primary antibody at 4° C. for overnight. Membranes were washed with TBS-T on the next day and incubated with HRP-conjugated secondary antibodies (Millipore) at room temperature for 1 hour and exposed to films after washing.
# [10] = target: ABL1-phosphorylated (Homo sapiens, UniProt P00519); test: KINOMEscan; details: read-out: Percent Control
# Sequence of ABL1-phosphorylated (P00519 whole entry): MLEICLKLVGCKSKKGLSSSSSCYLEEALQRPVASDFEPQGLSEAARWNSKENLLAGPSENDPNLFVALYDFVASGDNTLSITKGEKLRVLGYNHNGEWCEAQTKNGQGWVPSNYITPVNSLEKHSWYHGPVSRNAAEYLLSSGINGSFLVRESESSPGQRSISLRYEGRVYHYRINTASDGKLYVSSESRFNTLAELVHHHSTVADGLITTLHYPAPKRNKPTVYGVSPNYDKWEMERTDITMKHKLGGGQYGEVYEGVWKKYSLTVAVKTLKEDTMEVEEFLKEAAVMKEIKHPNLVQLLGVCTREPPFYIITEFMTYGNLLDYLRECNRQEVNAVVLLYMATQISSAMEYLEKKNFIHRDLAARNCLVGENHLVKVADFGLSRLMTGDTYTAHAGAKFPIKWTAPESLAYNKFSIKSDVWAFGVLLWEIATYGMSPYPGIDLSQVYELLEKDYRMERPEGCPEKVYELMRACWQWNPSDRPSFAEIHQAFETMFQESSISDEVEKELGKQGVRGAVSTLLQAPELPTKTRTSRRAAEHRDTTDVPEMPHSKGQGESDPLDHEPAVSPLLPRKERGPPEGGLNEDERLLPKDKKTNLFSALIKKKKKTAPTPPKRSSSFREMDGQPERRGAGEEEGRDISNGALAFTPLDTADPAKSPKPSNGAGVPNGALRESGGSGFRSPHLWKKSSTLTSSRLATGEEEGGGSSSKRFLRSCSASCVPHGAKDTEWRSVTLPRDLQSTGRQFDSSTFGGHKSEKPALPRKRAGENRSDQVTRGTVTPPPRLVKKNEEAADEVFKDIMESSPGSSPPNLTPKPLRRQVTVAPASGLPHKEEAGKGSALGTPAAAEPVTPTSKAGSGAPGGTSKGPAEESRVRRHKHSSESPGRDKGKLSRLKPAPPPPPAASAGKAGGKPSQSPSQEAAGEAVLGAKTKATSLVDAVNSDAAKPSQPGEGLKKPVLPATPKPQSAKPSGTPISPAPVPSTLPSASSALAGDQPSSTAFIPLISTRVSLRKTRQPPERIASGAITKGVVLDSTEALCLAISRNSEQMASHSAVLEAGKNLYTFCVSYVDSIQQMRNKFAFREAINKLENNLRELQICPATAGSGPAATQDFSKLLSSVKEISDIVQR
# Description: as §1
# [11] = target: MAK (Homo sapiens, UniProt P20794); test: KINOMEscan; details: read-out: Percent Control
# Description: as §1
# [12] = target: T1, PFPK5(P. falciparum) (Plasmodium falciparum, UniProt P61075); test: KINOMEscan; assay type: binding; details: read-out: Percent Control
# T1 construct: purchased DiscoverX
# [13] = target: ANKK1 (Homo sapiens, UniProt Q8NFD2); test: KINOMEscan; details: read-out: Percent Control
# Description: as §1
# [14] = target: KIT(V559D, V654A) (Homo sapiens, UniProt P10721, V559D/V654A); test: KINOMEscan; details: read-out: Percent Control
# Description: as §1
# [15] = target: STK39 (Homo sapiens, UniProt Q9UEW8); test: KINOMEscan; details: read-out: Percent Control
# Description: as §1
# [16] = target: LKB1 (Homo sapiens, UniProt Q15831); test: KINOMEscan; details: read-out: Percent Control
# Description: as §1
# [17] = target: RIPK1 (Homo sapiens, UniProt Q13546); test: KINOMEscan; details: read-out: Percent Control
# Description: as §1
# [18] = target: BRSK1 (Homo sapiens, UniProt Q8TDC3); test: KINOMEscan; details: read-out: Percent Control
# Description: as §1
# [19] = target: AKT2 (Homo sapiens, UniProt P31751); test: KINOMEscan; details: read-out: Percent Control
# Sequence of AKT2 (P31751 whole entry): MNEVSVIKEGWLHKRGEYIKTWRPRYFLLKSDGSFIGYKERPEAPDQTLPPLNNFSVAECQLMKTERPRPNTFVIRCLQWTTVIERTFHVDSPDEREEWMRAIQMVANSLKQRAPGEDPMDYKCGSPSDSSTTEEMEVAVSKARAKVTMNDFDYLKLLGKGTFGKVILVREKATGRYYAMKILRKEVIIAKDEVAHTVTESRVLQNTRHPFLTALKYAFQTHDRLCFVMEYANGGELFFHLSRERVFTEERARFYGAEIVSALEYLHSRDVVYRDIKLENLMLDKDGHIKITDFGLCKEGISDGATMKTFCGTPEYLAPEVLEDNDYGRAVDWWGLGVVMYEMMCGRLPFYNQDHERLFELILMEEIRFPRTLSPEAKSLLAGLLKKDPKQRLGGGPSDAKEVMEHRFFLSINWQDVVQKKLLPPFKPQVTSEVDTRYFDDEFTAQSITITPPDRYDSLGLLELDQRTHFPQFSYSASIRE
# Description: as §1
# [20] = target: TGFBR2 (Homo sapiens, UniProt P37173); test: KINOMEscan; details: read-out: Percent Control
# Sequence of TGFBR2 (P37173 23-567): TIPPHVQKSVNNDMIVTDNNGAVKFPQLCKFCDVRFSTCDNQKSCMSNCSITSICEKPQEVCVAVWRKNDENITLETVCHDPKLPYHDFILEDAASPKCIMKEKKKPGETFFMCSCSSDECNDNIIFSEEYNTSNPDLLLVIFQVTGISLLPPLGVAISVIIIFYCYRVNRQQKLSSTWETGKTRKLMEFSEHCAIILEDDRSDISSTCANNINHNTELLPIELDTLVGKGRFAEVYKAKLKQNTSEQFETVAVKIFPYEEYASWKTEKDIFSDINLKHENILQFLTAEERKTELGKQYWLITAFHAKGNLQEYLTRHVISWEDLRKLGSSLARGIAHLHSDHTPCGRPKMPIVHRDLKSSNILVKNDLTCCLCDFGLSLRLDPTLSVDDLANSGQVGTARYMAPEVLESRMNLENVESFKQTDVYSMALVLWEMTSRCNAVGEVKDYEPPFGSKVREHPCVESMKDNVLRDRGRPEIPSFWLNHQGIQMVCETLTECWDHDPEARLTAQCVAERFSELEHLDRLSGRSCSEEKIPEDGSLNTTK
# Description: as §1
# [21] = target: TRPM6 (Homo sapiens, UniProt Q9BX84); test: KINOMEscan; details: read-out: Percent Control
# Description: as §1
# [22] = target: MEK4 (Homo sapiens, UniProt P45985); test: KINOMEscan; details: read-out: Percent Control
# Description: as §1
# [23] = target: WNK3 (Homo sapiens, UniProt Q9BYP7); test: KINOMEscan; details: read-out: Percent Control
# Description: as §1
# [24] = target: CSNK2A1 (Homo sapiens, UniProt P68400); test: KINOMEscan; details: read-out: Percent Control
# Description: as §1
# [25] = target: WNK4 (Homo sapiens, UniProt Q96J92); test: KINOMEscan; details: read-out: Percent Control
# Description: as §1
# [26] = target: BUB1 (Homo sapiens, UniProt O43683); test: KINOMEscan; details: read-out: Percent Control
# Description: as §1
# [27] = target: ERK1 (Homo sapiens, UniProt P27361); test: KINOMEscan; details: read-out: Percent Control
# Sequence of ERK1 (P27361 whole entry): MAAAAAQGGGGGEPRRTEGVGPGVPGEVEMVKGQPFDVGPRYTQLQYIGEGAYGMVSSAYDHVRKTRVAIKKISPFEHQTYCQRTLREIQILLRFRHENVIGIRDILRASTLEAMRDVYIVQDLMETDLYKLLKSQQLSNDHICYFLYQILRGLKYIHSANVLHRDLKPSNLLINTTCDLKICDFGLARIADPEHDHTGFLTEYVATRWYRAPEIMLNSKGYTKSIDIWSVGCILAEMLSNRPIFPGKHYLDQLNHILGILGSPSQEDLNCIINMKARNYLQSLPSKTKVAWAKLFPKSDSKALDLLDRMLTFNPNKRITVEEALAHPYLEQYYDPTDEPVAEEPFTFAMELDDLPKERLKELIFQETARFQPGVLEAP
# Description: as §1
# [28] = target: TAOK3 (Homo sapiens, UniProt Q9H2K8); test: KINOMEscan; details: read-out: Percent Control
# Description: as §1
# [29] = target: ALK(L1196M) (Homo sapiens, UniProt Q9UM73, L1196M); test: KINOMEscan; details: read-out: Percent Control
# Description: as §1
# [30] = target: PIK3CA(I800L) (Homo sapiens, UniProt P42336, I800L); test: KINOMEscan; details: read-out: Percent Control
# Description: as §1
# [31] = target: MYLK (Homo sapiens, UniProt Q15746); test: KINOMEscan; details: read-out: Percent Control
# Description: as §1
# Sequence of ABL1(E255K)-phosphorylated (P00519 whole entry E255K): as the sequence (P00519 whole entry) above, with E255K counted along it
smiles,measurement,setting,value
"O=C1CCC(N2C(=O)c3cccc(NCCCCCCCCNC(=O)N4CC[C@H](NC5=Nc6cc(F)ccc6N(CC(F)F)c6ccc(Cl)cc65)C4)c3C2=O)C(=O)N1 (stereo partly drawn) [BJG-05-039, (3S)-3-((2-Chloro-5-(2,2-difluoroethyl)-8-fluoro-5H-dibenzo[b,e][1,4]diazepin-11-yl)amino)-N-(8-((2-(2,6-dioxopiperidin-3-yl)-1,3-dioxoisoindolin-4-yl)amino)octyl)pyrrolidine-1-carboxamide]",remaining binding at 10 µM,[1],100%
same,remaining binding at 10 µM,[2],93%
same,remaining binding at 10 µM,[3],82%
same,remaining binding at 10 µM,[4],84%
same,remaining binding at 10 µM,[5],46%
same,remaining binding at 10 µM,[6],100%
same,remaining binding at 10 µM,[7],71%
same,remaining binding at 10 µM,[8],69%
same,Reduction in PAK1 levels by immunoblot,[9]; FIG. 2A,~50%
same,PAK1 degradation,[9]; MCF7 and OVCAR3 cells,induced degradation of PAK1
same,Concentration of maximal PAK1 degradation,"[9]; MCF7 and OVCAR3 cells, 12 hour treatment",10 nM
same,Time to partial degradation of PAK1,"[9]; MCF7 cells, 250 nM, progressive loss out to 24 hours",≤ 4 h
same,PAK1 degradation on co-treatment,[9]; co-treatment with bortezomib or MLN4924,prevented PAK1 destabilization
same,PAK1 degradation at high concentration (hook effect),[9]; concentrations of 1 μM and greater,diminished PAK1 degradation was observed
same,remaining binding at 10 µM,[10],100%
same,remaining binding at 10 µM,[11],98%
same,remaining binding at 10 µM,[12],100%
same,remaining binding at 10 µM,[13],87%
same,remaining binding at 10 µM,[14],63%
same,remaining binding at 10 µM,[15],70%
same,remaining binding at 10 µM,[16],89%
same,remaining binding at 10 µM,[17],65%
same,remaining binding at 10 µM,[18],51%
same,remaining binding at 10 µM,[19],86%
same,remaining binding at 10 µM,[20],75%
same,remaining binding at 10 µM,[21],94%
same,remaining binding at 10 µM,[22],85%
same,remaining binding at 10 µM,[23],89%
same,remaining binding at 10 µM,[24],96%
same,remaining binding at 10 µM,[25],77%
same,remaining binding at 10 µM,[26],73%
same,remaining binding at 10 µM,[27],83%
same,remaining binding at 10 µM,[28],85%
same,remaining binding at 10 µM,[29],100%
same,remaining binding at 10 µM,[30],100%
same,remaining binding at 10 µM,[31],100%
